Measurements taken from patent publication US20250215029A1 (Recludix Pharma, Inc., priority 2022, published 2025).
Where two headings read alike, the source gives them in different places.

Tests used:
pY705-STAT3 in PBMC = biological target: T1, pY705-STAT3 in PBMC (Homo sapiens, UniProt P40763); assay: MSD-pSTAT-PBMC Assay (pSTAT3, IL-6 stimulated); assay type: cell-based; conditions: PBMC, compound 3 hrs, then 10 ng/mL IL-6 for 10 min
T1 construct: Cryopreserved Peripheral Blood Mononuclear Cells (PBMC) are from AllCells; host or cells: cryopreserved PBMC
Procedure, shortened: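 pY705-STAT3 was detected electrochemiluminescently on total-STAT3 capture plates, using lysates of human PBMCs given compound for 3 h and then IL-6 (10 ng/mL, 10 min). Values were background-subtracted against unstimulated wells and set relative to DMSO. IC50 was fitted with variable slope.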

pY641-STAT6 in PBMC = biological target: T2, pY641-STAT6 in PBMC (Homo sapiens, UniProt P42226); assay: MSD-pSTAT-PBMC Assay (pSTAT6, IL-4 stimulated); assay type: cell-based; conditions: compound 3 hrs, then 1 ng/mL IL-4 for 10 min
T2 construct: Cryopreserved Peripheral Blood Mononuclear Cells (PBMC) are from AllCells; host or cells: cryopreserved PBMC
T2 sequence (P42226 1-847): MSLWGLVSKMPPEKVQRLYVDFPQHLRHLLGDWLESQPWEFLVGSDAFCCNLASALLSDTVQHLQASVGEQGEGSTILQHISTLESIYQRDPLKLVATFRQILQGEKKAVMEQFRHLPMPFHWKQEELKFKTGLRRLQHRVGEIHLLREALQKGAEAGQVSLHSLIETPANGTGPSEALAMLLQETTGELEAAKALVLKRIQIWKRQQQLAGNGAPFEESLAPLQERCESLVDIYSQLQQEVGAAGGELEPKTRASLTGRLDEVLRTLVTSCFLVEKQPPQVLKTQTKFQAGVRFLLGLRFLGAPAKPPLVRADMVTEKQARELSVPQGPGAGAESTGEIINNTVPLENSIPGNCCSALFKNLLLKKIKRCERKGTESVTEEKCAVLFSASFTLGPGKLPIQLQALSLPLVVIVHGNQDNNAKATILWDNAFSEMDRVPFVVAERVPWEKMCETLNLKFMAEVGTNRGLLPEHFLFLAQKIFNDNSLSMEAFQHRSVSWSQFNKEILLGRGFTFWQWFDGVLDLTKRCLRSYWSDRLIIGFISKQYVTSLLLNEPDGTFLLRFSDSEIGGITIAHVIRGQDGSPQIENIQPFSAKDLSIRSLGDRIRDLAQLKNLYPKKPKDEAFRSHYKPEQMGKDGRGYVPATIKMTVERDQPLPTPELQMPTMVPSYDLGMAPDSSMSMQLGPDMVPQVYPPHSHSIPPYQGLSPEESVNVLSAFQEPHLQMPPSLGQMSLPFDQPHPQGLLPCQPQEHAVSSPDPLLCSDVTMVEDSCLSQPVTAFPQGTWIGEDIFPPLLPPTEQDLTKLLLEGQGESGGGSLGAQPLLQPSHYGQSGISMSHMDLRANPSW
Procedure, shortened: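 PBMC (human, cryopreserved, overnight recovery) + cpd 3 hrs → IL-6 10 ng/mL (STAT3) or IL-4 1 ng/mL (STAT6) ×10 min → lysis with protease/phosphatase inhibitors → MSD capture/phospho detection. IC50, variable slope, DMSO-normalized.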

[1] = PBMC, Table 1114, read-out: pSTAT6
[2] = PBMC, Table 115, read-out: STAT6

T1 sequence (P40763 whole entry): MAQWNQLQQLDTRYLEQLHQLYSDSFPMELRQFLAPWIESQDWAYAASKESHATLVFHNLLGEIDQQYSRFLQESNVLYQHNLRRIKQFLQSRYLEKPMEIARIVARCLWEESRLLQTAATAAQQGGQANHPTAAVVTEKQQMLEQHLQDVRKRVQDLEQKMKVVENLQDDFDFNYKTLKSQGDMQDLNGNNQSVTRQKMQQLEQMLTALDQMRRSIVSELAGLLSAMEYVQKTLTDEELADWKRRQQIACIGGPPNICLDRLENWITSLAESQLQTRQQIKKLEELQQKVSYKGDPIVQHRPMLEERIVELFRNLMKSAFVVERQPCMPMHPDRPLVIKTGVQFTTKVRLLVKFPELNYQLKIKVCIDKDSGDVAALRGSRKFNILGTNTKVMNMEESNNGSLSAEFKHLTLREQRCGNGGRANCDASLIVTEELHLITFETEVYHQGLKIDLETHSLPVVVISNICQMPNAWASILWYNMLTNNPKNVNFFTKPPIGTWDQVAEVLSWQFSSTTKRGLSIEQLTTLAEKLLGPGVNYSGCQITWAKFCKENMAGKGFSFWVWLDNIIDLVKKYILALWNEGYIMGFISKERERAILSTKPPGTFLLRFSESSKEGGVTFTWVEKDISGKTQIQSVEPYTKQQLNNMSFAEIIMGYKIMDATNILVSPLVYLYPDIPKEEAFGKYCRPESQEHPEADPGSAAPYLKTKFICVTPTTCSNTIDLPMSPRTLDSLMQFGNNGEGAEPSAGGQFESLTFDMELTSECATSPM

SMILES | IC50 (pY705-STAT3 in PBMC; Table 1114, read-out: pSTAT3) | IC50 (pY641-STAT6 in PBMC; [1]) | IC50 (pY705-STAT3 in PBMC; Table 115, read-out: STAT3) | IC50 (pY641-STAT6 in PBMC; STAT6, PBMC, Table 115) | also measured
COc1ccncc1C1CN(C(=O)[C@@H]2CC[C@@H]3CCC[C@H](NC(=O)c4cc5cc([C@@H](F)[P@](=O)(N[C@@H](C)C(=O)OCc6ccccc6)Oc6ccccc6)ccc5s4)C(=O)N32)C1 (single isomer, unassigned) [Compound 1055] | – | – | < 100 nM | > 3000 nM | –
CC(C)OC(=O)[C@H](C)NP(=O)(Oc1ccccc1)C(F)c1ccc2sc(C(=O)N[C@H]3CCC[C@H]4CC[C@@H](C(=O)N5CC(c6cccnc6)C5)N4C3=O)cc2c1 (stereo partly drawn) [Compound 196, isopropyl ((fluoro(2-(((3S,6S,9aS)-5-oxo-3-(3-(pyridin-3-yl)azetidine-1-carbonyl)octahydro-1H-pyrrolo[1,2-a]azepin-6-yl)carbamoyl)benzo[b]thiophen-5-yl)methyl) (phenoxy)phosphoryl)-L-alaninate] | 100 to 1000 nM | – | – | – | IC50 (pY641-STAT6 in PBMC; pSTAT6, PBMC, Table 1114): > 3000 nM
CC(C)(C)C(=O)OCOP(=O)(OCOC(=O)C(C)(C)C)C(F)(F)c1ccc2sc(C(=O)N[C@H]3CCCC[C@H]4CCC[C@@H](C(=O)N5CC(C(=O)N6CCOCC6)C5)N4C3=O)cc2c1 [Compound 172, (((difluoro(2-(((4S,7S,11aS)-4-(3-(morpholine-4-carbonyl)azetidine-1-carbonyl)-6-oxodecahydro-2H-pyrido[1,2-a]azocin-7-yl)carbamoyl)benzo[b]thiophen-5-yl)methyl)phosphoryl)bis(oxy))bis(methylene) bis(2,2-dimethylpropanoate)] | < 100 nM | 1000 to 3000 nM | – | – | –
CCCCOC(=O)[C@H](C)NP(=O)(Oc1ccccc1)C(F)(F)c1ccc2ccc(C(=O)N[C@H]3CCCC[C@H]4CC[C@@H](C(=O)N5CC(c6ccccc6)CC56CC6)N4C3=O)cc2c1 (stereo partly drawn) [Compound 407, butyl ((difluoro(7-(((3S,6S,10aS)-5-oxo-3-(6-phenyl-4-azaspiro[2.4]heptane-4-carbonyl)decahydropyrrolo[1,2-a]azocin-6-yl)carbamoyl)naphthalen-2-yl)methyl)(phenoxy)phosphoryl)-L-alaninate] | – | – | > 3000 nM | 1000 to 3000 nM | –
COCC(=O)SCCOP(=O)(OCCSC(=O)COC)C(F)(F)c1ccc2sc(C(=O)N[C@H]3CCCC[C@H]4CC[C@@H](C(=O)N5C[C@@H](C#N)[C@H](c6cc[nH]c(=O)c6)C5)N4C3=O)cc2c1 (single isomer, unassigned) [Compound 1010] | – | – | 1000 to 3000 nM | – | IC50 (pY641-STAT6 in PBMC; [2]): 100 to 1000 nM
CC(C)OC(=O)OCOP(=O)(OCOC(=O)OC(C)C)C(F)(F)c1ccc2ccc(C(=O)N[C@H]3CCCC[C@H]4CC[C@@H](C(=O)N5C[C@H](c6cc[nH]c(=O)c6)[C@@H](C#N)C5)N4C3=O)cc2c1 (single isomer, unassigned) [Compound 1087] | – | – | 100 to 1000 nM | – | IC50 (pY641-STAT6 in PBMC; [2]): < 100 nM
CCCOC(=O)[C@H](C)NP(=O)(Cc1ccc2sc(C(=O)N[C@H]3CCC[C@H]4CC[C@@H](C(=O)N5CC(c6cnccc6N(C)C)C5)N4C3=O)cc2c1)Oc1ccccc1 (stereo partly drawn) [Compound 973, propyl (((2-(((3S,6S,9aS)-3-(3-(4-(dimethylamino)pyridin-3-yl)azetidine-1-carbonyl)-5-oxooctahydro-1H-pyrrolo[1,2-a]azepin-6-yl)carbamoyl)benzo [b]thiophen-5-yl)methyl)(phenoxy)phosphoryl)-L-alaninate] | – | – | < 100 nM | > 3000 nM | –
CCCC(=O)SCCOP(=O)(Oc1ccccc1)C(F)(F)c1ccc2sc(C(=O)N[C@H]3CCCC[C@H]4CC[C@@H](C(=O)N5C[C@H](c6ccccc6)[C@@H](C#N)C5)N4C3=O)cc2c1 (single isomer, unassigned) [Compound 128, S-(2-((((2-(((3S,6S,10aS)-3-((3R,4S or 3S,4R)-3-cyano-4-phenylpyrrolidine-1-carbonyl)-5-oxodecahydro-pyrrolo[1,2-a]azocin-6-yl)carbamoyl)benzo[b]thiophen-5-yl)difluoromethyl) (phenoxy)phosphoryl)oxy)ethyl) butanethioate] | > 3000 nM | – | – | – | IC50 (pY641-STAT6 in PBMC; pSTAT6, PBMC, Table 1114): 100 to 1000 nM
CCCOC(=O)[C@H](C)NP(=O)(Cc1ccc2sc(C(=O)N[C@H]3CC4(CC[C@H]5CC[C@@H](C(=O)N6CC(c7cccnc7)C6)N5C3=O)CC4)cc2c1)Oc1ccccc1 (stereo partly drawn) [Compound 302, propyl (((2-(((3′S,6′S,10a′S)-5′-oxo-3′-(3-(pyridin-3-yl)azetidine-1-carbonyl)octahydro-5′H-spiro[cyclopropane-1,8′-pyrrolo[1,2-a]azocin]-6′-yl)carbamoyl)benzo [b]thiophen-5-yl)methyl)(phenoxy)phosphoryl)-L-alaninate] | – | – | < 100 nM | 1000 to 3000 nM | –
CCCOC(=O)[C@H](C)NP(=O)(Oc1ccccc1)[C@@H](F)c1ccc2sc(C(=O)N[C@H]3CCCC[C@H]4CC[C@@H](C(=O)N5C[C@@H](C#N)[C@H](c6ccccc6)C5)N4C3=O)cc2c1 (single isomer, unassigned) [Compound 343] | – | – | > 3000 nM | < 100 nM | –

Second part, led by results:

IC50 (pY705-STAT3 in PBMC; Table 1114, read-out: pSTAT3) | IC50 (pY641-STAT6 in PBMC; [1]) | SMILES | IC50 (pY705-STAT3 in PBMC; Table 115, read-out: STAT3) | IC50 (pY641-STAT6 in PBMC; STAT6, PBMC, Table 115) | also measured
100 to 1000 nM | < 100 nM | CC(C)CC(=O)SCCOP(=O)(OCOC(=O)OC(C)C)C(F)(F)c1ccc2sc(C(=O)N[C@H]3CCCC[C@H]4CC[C@@H](C(=O)N5C[C@H](c6ccccc6)[C@@H](C#N)C5)N4C3=O)cc2c1 (single isomer, unassigned) [Compound 166, S-(2-((((2-(((3S,6S,10aS)-3-((3R,4S or 3S,4R)-3-cyano-4-phenylpyrrolidine-1-carbonyl)-5-oxodecahydropyrrolo [1,2-a]azocin-6-yl)carbamoyl)benzo[b]thiophen-5-yl)difluoromethyl) (((isopropoxycarbonyl)oxy)methoxy)phosphoryl)oxy)ethyl)-3-methylbutane thioate] | – | – | –
< 100 nM | > 3000 nM | CC(C)OC(=O)OCOP(=O)(Cc1ccc2sc(C(=O)N[C@H]3CCCC4CC[C@@H](C(=O)N5CC(c6cccnc6)C5)N4C3=O)cc2c1)OCOC(=O)OC(C)C (stereo partly drawn) [Compound 158, diisopropyl (((((2-(((3S,6S,9aS)-5-oxo-3-(3-(pyridin-3-yl)azetidine-1-carbonyl)octahydro-1H-pyrrolo[1,2-a]azepin-6-yl)carbamoyl)benzo [b]thiophen-5-yl)methyl)phosphoryl)bis (oxy))bis(methyl-ene))bis(carbonate)] | – | – | –
100 to 1000 nM | > 3000 nM | CC(C)(C)C(=O)OCOP(=O)(OCOC(=O)C(C)(C)C)C(F)(F)c1ccc2sc(C(=O)N[C@@]3(C)CCCC[C@H]4CC[C@@H](C(=O)N5CC(c6ccccn6)C5)N4C3=O)cc2c1 [Compound 150, (((difluoro(2-(((3S,6S,10aS)-6-methyl-5-oxo-3-(3-(pyridin-2-yl)azetidine-1-carbonyl)decahydropyrrolo [1,2-a]azocin-6-yl)carbamoyl)benzo[b]thiophen-5-yl)methyl)phosphoryl)bis (oxy))bis (methylene) bis(2,2-dimethyl-propanoate)] | – | – | –
1000 to 3000 nM | < 100 nM | CC(C)(C)C(=O)OCOP(=O)(OCOC(=O)C(C)(C)C)C(F)(F)c1ccc2sc(C(=O)N[C@H]3CCCCC[C@H]4CC[C@@H](C(=O)N5C[C@@H](C#N)[C@H](c6ccccc6)C5)N4C3=O)cc2c1 (relative stereo) [Compound 146, ((((2-(((3S,6S,11aS)-3-(rel-(trans)-3-cyano-4-phenylpyrrolidine-1-carbonyl)-5-oxodecahydro-1H-pyrrolo[1,2-a]azonin-6-yl)carbamoyl)benzo[b]thiophen-5-yl)difluoromethyl)phosphoryl)bis (oxy))bis(methylene) bis(2,2-dimethyl-propanoate)] | – | – | –
< 100 nM | 100 to 1000 nM | CC(C)(C)C(=O)OCOP(=O)(OCOC(=O)C(C)(C)C)C(F)(F)c1ccc2sc(C(=O)N[C@H]3CCC[C@H]4CC[C@@H](C(=O)N5CC(c6ccccn6)C5)N4C3=O)cc2c1 [Compound 188, (((difluoro(2-(((3S,6S,9aS)-5-oxo-3-(3-(pyridin-2-yl)azetidine-1-carbonyl)octahydro-1H-pyrrolo[1,2-a]azepin-6-yl)carbamoyl)benzo[b]thiophen-5-yl)methyl)phosphoryl)bis (oxy))bis (methylene) bis(2,2-dimethyl-propanoate)] | – | – | –
